Test results published in patent US20070020196A1, “Inhalant formulation containing sulfoalkyl ether cyclodextrin and corticosteroid prepared from a unit dose suspension” (priority 2003, published 2007).
In brackets after ≈: the same amount, converted by molar mass.

Legend:
[1] = Stability of budesonide R- and S-isomers with and without SBE7-β-CD (Example 13); type: physicochemical
Description: The inventors have also discovered that SAE-CD is capable of stabilizing the isomers of budesonide to different extents. A study to determine if SBE7-β-CD stabilized budesonide solutions and if it preferentially stabilized one isomer was conducted according to Example 13. FIG. 11 is a semi-log plot of the % of initial concentration at each time point for the samples stored at 60 ° C. Loss of budesonide was first order at each temperature.
Solutions of budesonide with and without SBE7-β-CD were prepared at two different pHs (4 and 6) and stored at 2 different temperatures (60° C. and 80° C.). Citrate buffers (50 mM) at each pH value were prepared by mixing differing portions of 50 mM citric acid and 50 mM sodium citrate (tribasic, dihydrate) solutions. To achieve a concentration of budesonide in the buffers without SBE7-β-CD sufficient for accurate measurement, the budesonide was dissolved first in 100% ethyl alcohol. An aliquot of the ethanol/budesonide solution was then added drop-wise with stirring to each buffer solution. The theoretical budesonide concentration was 100 μg/mL with a final ethanolic content of 5% in each buffer. All solution preps and procedures involving budesonide were done in a darkened room under red light. After shaking solutions for 24 hours, both buffer solutions were filtered through Millipore Millex-GV 0.22 μm syringe filters to remove any solid that had precipitated (no significant amounts observed) from the solutions. The final budesonide concentration was about 50 μg/mL. Both the pH 4 and 6 solutions were split in two, and solid SBE7-β-CD was added to one of the portions to create solutions with and without 1% w/v SBE7-β-CD at each pH. Each solution was aliquoted into individual amber vials. They were then placed in ovens at 60° C. and 80° C. Sample vials were removed from the ovens and analyzed by HPLC at 0, 96, 164, and 288 hours. The HPLC assay conditions are summarized below.

[2] = Solubility of selected steroids enhanced by cyclodextrins (phase solubility); details: thermodynamic from solid
[3] = Molar ratio SAE-CD:corticosteroid at saturated solubility (phase solubility binding study); type: physicochemical
physchem = details: thermodynamic from solid
[4] = aqueous cyclodextrin solution, aqueous with cosolvent or surfactant or cyclodextrin, Solubility of steroid, (SBE)6.1 γ-CD 0.04 M
[5] = aqueous cyclodextrin solution, aqueous with cosolvent or surfactant or cyclodextrin, Solubility of steroid, (SBE)6.1 γ-CD 0.08 M
[6] = aqueous cyclodextrin solution, aqueous with cosolvent or surfactant or cyclodextrin, Solubility of steroid, (SBE)6.7 β-CD 0.0465 M
[7] = aqueous cyclodextrin solution, aqueous with cosolvent or surfactant or cyclodextrin, Solubility of steroid, (SBE)6.7 β-CD 0.0950 M
[8] = aqueous cyclodextrin solution, aqueous with cosolvent or surfactant or cyclodextrin, Solubility of steroid, γ-CD 0.035 M
[9] = aqueous cyclodextrin solution, aqueous with cosolvent or surfactant or cyclodextrin, Solubility of steroid, γ-CD 0.1 M
[10] = aqueous cyclodextrin solution, aqueous with cosolvent or surfactant or cyclodextrin, [Steroid] solubility, (SBE)6.1 γ-CD (0.04 M)
[11] = aqueous cyclodextrin solution, aqueous with cosolvent or surfactant or cyclodextrin, [Steroid] solubility, Captisol (0.04 M)
[12] = water, Solubility of steroid, H2O, no CD
[13] = water, [Steroid] Intrinsic Solubility (in H2O), in H2O
[14] = aqueous cyclodextrin solution, aqueous with cosolvent or surfactant or cyclodextrin, Solubility of steroid, (SBE)2.4 β-CD 0.04 M
[15] = aqueous cyclodextrin solution, aqueous with cosolvent or surfactant or cyclodextrin, Solubility of steroid, (SBE)5.2 γ-CD 0.1 M
[16] = aqueous cyclodextrin solution, aqueous with cosolvent or surfactant or cyclodextrin, Solubility of steroid, (SBE)9.7 γ-CD […]
[17] = aqueous cyclodextrin solution, aqueous with cosolvent or surfactant or cyclodextrin, Solubility of steroid, (SPE)5.4 γ-CD 0.04 M
[18] = aqueous cyclodextrin solution, aqueous with cosolvent or surfactant or cyclodextrin, Solubility of steroid, (SPE)5.4 γ-CD 0.08 M
[19] = aqueous cyclodextrin solution, aqueous with cosolvent or surfactant or cyclodextrin, Solubility of steroid, (SPE)7 β-CD 0.04 M
[20] = aqueous cyclodextrin solution, aqueous with cosolvent or surfactant or cyclodextrin, Solubility of steroid, (SPE)7 β-CD 0.08 M

Row | solubility [2, 4] [µM] | solubility [2, 5] [µM] | solubility [2, 6] [µM] | solubility [2, 7] [µM] | solubility [2, 9] [µM] | solubility [2, 12] [µM] | solubility [2, 14] [µM] | solubility [2, 15] [µM] | solubility [2, 16] [µM] | solubility [2, 17] [µM] | solubility [2, 18] [µM] | solubility [2, 19] [µM] | solubility [2, 20] [µM] | SMILES | solubility [2, 8] [µM] | solubility [2, 10] [µM] | solubility [2, 11] [µM] | solubility [2, 13] [µM] | Approximate Molar Ratio at Saturated Solubility of Corticosteroid (SAE-CD: corticosteroid) ([3]; SAE-β-CD) | further results
1 | 5760 | 9490 | 1260 | 2160 | 822 | 1.6 | 128 | 14400 | 8950 | 7600 | 13900 | 939 | 1510 | C[C@@H]1C[C@H]2[C@@H]3C[C@H](F)C4=CC(=O)C=C[C@]4(C)[C@@]3(F)[C@@H](O)C[C@]2(C)[C@@]1(O)C(=O)SCF [Fluticasone, fluticasone] | – | – | – | – | ~32 | –
2 | 518 | 1210 | 54.1 | 79.9 | 221 | 3.9 | 17 | 2150 | 1030 | 717 | 1400 | 10.5 | 21.2 | CCC(=O)O[C@]1(C(=O)SCF)[C@H](C)C[C@H]2[C@@H]3C[C@H](F)C4=CC(=O)C=C[C@]4(C)[C@@]3(F)[C@@H](O)C[C@@]21C [Fluticasone propionate, fluticasone propionate] | 735 | 518 | 54.1 | 3.9 | ~797 | solubility ([2]; aqueous cyclodextrin solution, aqueous with cosolvent or surfactant or cyclodextrin, Solubility of steroid, (SBE)2.4 β-CD 0.08 M): 24.6 µM; solubility ([2]; aqueous cyclodextrin solution, aqueous with cosolvent or surfactant or cyclodextrin, Solubility of steroid, (SBE)5.2 γ-CD 0.04 M): 791 µM; solubility ([2]; aqueous cyclodextrin solution, aqueous with cosolvent or surfactant or cyclodextrin, Solubility of steroid, (SBE)7 α-CD 0.04 M): 83.7 µM; solubility ([2]; aqueous cyclodextrin solution, aqueous with cosolvent or surfactant or cyclodextrin, Solubility of steroid, (SBE)7 α-CD 0.08 M): 114 µM; solubility ([2]; aqueous cyclodextrin solution, aqueous with cosolvent or surfactant or cyclodextrin, Solubility of steroid, (SBE)9.7 γ-CD 0.04 M): 545 µM; Approximate Molar Ratio at Saturated Solubility of Corticosteroid (SAE-CD: corticosteroid) ([3]; SAE-α-CD): ~501; Approximate Molar Ratio at Saturated Solubility of Corticosteroid (SAE-CD: corticosteroid) ([3]; SAE-γ-CD): ~51

More lines, now with the values behind:

Row | SMILES | solubility [2, 4] [µM] | solubility [2, 5] [µM] | solubility [2, 6] [µM] | solubility [2, 7] [µM] | solubility [2, 9] [µM] | solubility [2, 12] [µM] | solubility [2, 14] [µM] | solubility [2, 15] [µM] | solubility [2, 16] [µM] | solubility [2, 17] [µM] | solubility [2, 18] [µM] | solubility [2, 19] [µM] | solubility [2, 20] [µM] | solubility [2, 8] [µM] | solubility [2, 10] [µM] | solubility [2, 11] [µM] | solubility [2, 13] [µM] | Approximate Molar Ratio at Saturated Solubility of Corticosteroid (SAE-CD: corticosteroid) ([3]; SAE-β-CD) | further results
3 | CCC[C@@H]1O[C@@H]2C[C@H]3[C@@H]4CCC5=CC(=O)C=C[C@]5(C)[C@H]4[C@@H](O)C[C@]3(C)[C@]2(C(=O)CO)O1 (single isomer, unassigned) [R-isomer] | – | – | – | – | – | – | – | – | – | – | – | – | – | – | – | – | – | – | With/without CAPTISOL ratio of rate constants ([1]; pH 4, 60° C.): 0.547; With/without CAPTISOL ratio of rate constants ([1]; pH 4, 80° C.): 0.607; Pseudo 1st Order Rate constant ([1]; pH 4 no CAPTISOL, 60° C.): 0.00109 h⁻¹; Pseudo 1st Order Rate constant ([1]; pH 4 no CAPTISOL, 80° C.): 0.003704 h⁻¹; Pseudo 1st Order Rate constant ([1]; pH 4 w/ CAPTISOL, 60° C.): 0.000597 h⁻¹; Pseudo 1st Order Rate constant ([1]; pH 4 w/ CAPTISOL, 80° C.): 0.00225 h⁻¹; With/without CAPTISOL ratio of rate constants ([1]; pH 6, 60° C.): 0.385; With/without CAPTISOL ratio of rate constants ([1]; pH 6, 80° C.): 0.529; Pseudo 1st Order Rate constant ([1]; pH 6 no CAPTISOL, 60° C.): 0.00432 h⁻¹; Pseudo 1st Order Rate constant ([1]; pH 6 no CAPTISOL, 80° C.): 0.0138 h⁻¹; Pseudo 1st Order Rate constant ([1]; pH 6 w/ CAPTISOL, 60° C.): 0.001661 h⁻¹; Pseudo 1st Order Rate constant ([1]; pH 6 w/ CAPTISOL, 80° C.): 0.00732 h⁻¹
4 | CC1(C)O[C@@H]2C[C@H]3[C@@H]4CCC5=CC(=O)C=C[C@]5(C)[C@@]4(F)[C@@H](O)C[C@]3(C)[C@]2(C(=O)CO)O1 [Triamcinolone acetonide, triamcinolone acetonide] | 10600 | 23900 | 4570 | 10200 | 1390 | 35.6 | – | – | – | – | – | – | – | 1980 | 10600 | 4570 | 35.6 | ~9 | –
5 | C[C@]12C=CC(=O)C=C1CC[C@@H]1[C@@H]2C(=O)C[C@@]2(C)[C@H]1CC[C@]2(O)C(=O)CO [Prednisone] | – | – | – | – | – | – | – | – | – | – | – | – | – | – | – | – | – | – | solubility (physchem; aqueous with cosolvent or surfactant or cyclodextrin, [Steroid] solubility, (SBE)6.1 γ-CD (0.04 M)): 13100 µM (≈ 4710 µg/mL); solubility (physchem; aqueous with cosolvent or surfactant or cyclodextrin, [Steroid] solubility, Captisol (0.04 M)): 18300 µM (≈ 6570 µg/mL); solubility (physchem; water, [Steroid] Intrinsic Solubility (in H2O)): 505 µM (≈ 181 µg/mL)
